The structures appear in SMILES notation.

For the assay, the target named is Rho-associated protein kinase 2 (Homo sapiens, UniProt O75116). The experiment in a line: Biological Assay: The kinase IC50 was determined by a commercialized CISBIO kinase detection kit, HTRF KinEASE-STK S2 kit (62ST2PEC). ROCK2 (01-119) employed in the reaction was purchased from Carna Biosciences.Before the assay, the following working solutions as needed were formulated with corresponding reagents according to the instruction of the kinase detection kit: 1×kinase buffer, 5×STK-52 substrate working solution (1.5 μM) and 5×ATP working solution (1.5 μM), 5×ROCK2 kinase working solution, 4×Streptavidin-XL665 working solution, and 4×STK-Ab-Cryptate 2 detection solution. Then the assay was performed according to the following procedure.A solution of a compound at a concentration of 10000 nM was prepared with the 1×kinase buffer containing 2.5% DMSO. Gradient dilution of the solution of the compound was performed with the kinase buffer containing DMSO, so as to obtain solutions of a test compound at 9 different concentrations. In addition to wells of test compounds, a positive well (containing all the reagents except the compound) and a negative well (containing all the reagents except the test compound and kinase) were set. Except for the control wells (positive and negative wells), a solution of a test compound (4 μL) was added to each of the reaction wells, and a solution of 2.5% DMSO was added to the control wells. […]. (In general: In TR-FRET formats the signal depends on donor and acceptor labels being close together.)
Sequence of Rho-associated protein kinase 2 (O75116 whole entry): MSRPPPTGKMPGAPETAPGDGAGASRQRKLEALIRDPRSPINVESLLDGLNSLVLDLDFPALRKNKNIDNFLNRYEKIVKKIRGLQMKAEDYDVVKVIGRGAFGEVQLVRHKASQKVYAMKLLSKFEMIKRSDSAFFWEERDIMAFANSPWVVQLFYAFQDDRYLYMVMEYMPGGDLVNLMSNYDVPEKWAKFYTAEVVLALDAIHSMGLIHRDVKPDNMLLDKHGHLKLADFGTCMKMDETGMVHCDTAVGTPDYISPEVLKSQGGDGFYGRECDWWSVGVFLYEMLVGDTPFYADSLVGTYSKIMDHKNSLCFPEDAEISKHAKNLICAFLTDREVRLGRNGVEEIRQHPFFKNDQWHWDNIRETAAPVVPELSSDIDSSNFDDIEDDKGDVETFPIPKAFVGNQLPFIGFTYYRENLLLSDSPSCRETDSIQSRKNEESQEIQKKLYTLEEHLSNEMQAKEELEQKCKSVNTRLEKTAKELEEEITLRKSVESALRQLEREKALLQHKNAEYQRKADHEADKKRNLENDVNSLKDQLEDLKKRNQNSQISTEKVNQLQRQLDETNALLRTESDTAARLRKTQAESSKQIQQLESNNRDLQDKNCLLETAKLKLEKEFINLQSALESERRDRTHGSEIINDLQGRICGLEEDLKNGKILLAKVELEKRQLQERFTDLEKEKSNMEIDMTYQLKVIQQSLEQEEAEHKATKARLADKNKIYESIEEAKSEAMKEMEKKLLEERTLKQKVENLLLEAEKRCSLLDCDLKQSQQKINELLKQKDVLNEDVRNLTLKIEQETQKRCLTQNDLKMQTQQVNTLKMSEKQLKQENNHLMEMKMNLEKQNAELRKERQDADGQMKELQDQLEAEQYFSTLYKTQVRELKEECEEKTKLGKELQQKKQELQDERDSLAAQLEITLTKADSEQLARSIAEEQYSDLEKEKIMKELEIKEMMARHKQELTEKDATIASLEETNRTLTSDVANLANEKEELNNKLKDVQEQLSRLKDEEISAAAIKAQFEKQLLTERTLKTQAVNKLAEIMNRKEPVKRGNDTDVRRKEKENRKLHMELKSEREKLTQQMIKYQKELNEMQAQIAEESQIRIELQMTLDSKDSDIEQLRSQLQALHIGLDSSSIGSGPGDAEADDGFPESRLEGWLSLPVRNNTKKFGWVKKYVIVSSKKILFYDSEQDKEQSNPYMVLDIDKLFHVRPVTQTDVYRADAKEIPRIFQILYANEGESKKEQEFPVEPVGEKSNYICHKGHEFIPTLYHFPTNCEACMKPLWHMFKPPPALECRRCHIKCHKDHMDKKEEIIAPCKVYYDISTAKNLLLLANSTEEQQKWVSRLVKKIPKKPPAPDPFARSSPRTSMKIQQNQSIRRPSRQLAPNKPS

Take `O=C(Nc1ccc(-c2cn[nH]c2)cc1)c1cc2ccc(-c3nccc(Nc4ccc5[nH]ncc5c4)n3)cc2[nH]1`: the IC50 (usually the concentration that gives 50% inhibition) is 71 nM.
